Test results reported in patent US8148333B2, “Stable composition comprising a PTHrP analogue” (priority 2006, dated 2012).

What was measured:
[1] = Chemical stability of formulations: (SEQ ID NO.: 2) content (Table 6); assay type: physicochemical; settings: formulations of Table 6
Source text: TABLE 6 details the chemical stability of the formulations described in Example 4.

Bacteria; Yeast and mold = assay: Anti-microbial effectiveness test, overall result (conformity); assay type: cell-based; settings: for preservative effectiveness results for both Bacteria and Yeasts/moulds: immediately after manufacture
bacteria, yeast and mold = assay: Preservative effectiveness test, screening of preservatives (Table 3); assay type: cell-based; settings: Table 3 screening
Experimental: Solutions were prepared containing [Glu^22,25, Leu^23,28,31, Aib29, Lys^26,31]hPTHrP(1-34)NH2 (SEQ ID NO.: 2) 2 mg/ml, acetate buffer 6 mM and water for injection, with various different preservatives added at concentrations recommended for effective antimicrobial activity. Solutions were prepared at room temperature, by dissolution of the various ingredients in water for injection, with stirring over <30 minutes to ensure complete dissolution, Solutions were filtered through 0.2 micron filter and filled into glass vials, to which a rubber stopper was applied and crimped in place to ensure complete closure.
The solution with methylparaben was less acceptable due to precipitation and inactivity immediately after manufacture of the solution. The solutions were then stored for up to 3 months at 25° C., and up to 4.5 months at 5° C. and the preservative effectiveness test repeated. as described in Example 5.

SMILES | solution stability, influence of the preservative selected [1] | efficacy against Bacteria (Bacteria; Yeast and mold; after 3 and 4.5 months storage) | preservative effectiveness results for both Bacteria and Yeasts/moulds (Bacteria; Yeast and mold) | suitability as preservative for use with SEQ ID NO.: 2 (precipitation and/or inactivity in preservative activity) (bacteria, yeast and mold) | preservative efficacy for both Bacteria and Yeasts/moulds (Bacteria; Yeast and mold; after 3 and 4.5 months storage)
CC[C@H](C)[C@H](NC(=O)[C@H](CO)NC(=O)[C@H](CCCCN)NC(=O)CNC(=O)[C@H](CCCCN)NC(=O)[C@H](CC(=O)O)NC(=O)[C@H](Cc1cnc[nH]1)NC(=O)[C@H](CC(C)C)NC(=O)[C@H](CC(C)C)NC(=O)[C@H](CCC(N)=O)NC(=O)[C@H](Cc1cnc[nH]1)NC(=O)[C@H](CCC(=O)O)NC(=O)[C@H](CO)NC(=O)[C@@H](NC(=O)[C@H](C)N)C(C)C)C(=O)N[C@@H](CCC(N)=O)C(=O)N[C@@H](CC(=O)O)C(=O)N[C@@H](CC(C)C)C(=O)N[C@@H](CCCNC(=N)N)C(=O)N[C@@H](CCCNC(=N)N)C(=O)N[C@@H](CCCNC(=N)N)C(=O)N[C@@H](CCC(=O)O)C(=O)N[C@@H](CC(C)C)C(=O)N[C@@H](CC(C)C)C(=O)N[C@@H](CCC(=O)O)C(=O)N[C@@H](CCCCN)C(=O)N[C@@H](CC(C)C)C(=O)N[C@@H](CC(C)C)C(=O)NC(C)(C)C(=O)N[C@@H](CCCCN)C(=O)N[C@@H](CC(C)C)C(=O)N[C@@H](Cc1cnc[nH]1)C(=O)N[C@H](C(=O)N[C@@H](C)C(N)=O)[C@@H](C)O [SEQ ID NO.: 2, [Glu^22,25, Leu^23,28,31, Aib^29, Lys^26,30]hPTHrP(1-34)NH2] | not significantly influenced | – | – | – | –
OCc1ccccc1 [Benzyl Alcohol] | – | not compliant | compliant | not suitable | –
Oc1ccccc1 [Phenol] | – | – | compliant | – | maintained
COC(=O)c1ccc(O)cc1 [Methyparaben] | – | – | – | not suitable | –
